The values that follow come from US5208343A, “Tetrahydropyridine oxime compounds” (Warner-Lambert Company, priority 1992, dated 1993).

The IC50 is the midpoint of a concentration-inhibition curve.

The target of assay [1] is sigma binding site. Put plainly: Sigma binding affinity using [^3 H]-(+)-3-(3'-hydroxyphenyl) N (1'-propyl)piperidine ([^3 H]3PPP). The following applies: [^3 H]3PPP radioligand, in vitro. Here is the method:
(§1) Sigma binding affinities are measured using [^3 H]-(+)-3-(3'-hydroxyphenyl) N (1'-propyl)piperidine, referred to in the following Table I as 3PPP. This test is carried out according to the procedures of B. L. Largent, et al, Proc. Natl. Acad. Sci., USA, 1984; 81:5618. The affinity of the compounds of the present invention for dopamine receptors was determined in vitro with the dopamine antagonist [^3 H]spiperone according to the procedure of S. Urwyler, et al, J. Neurochem. 1986; 46:1058. The ability of the compounds to bind muscarinic antagonist sites was determined in vitro using [^3 H]-quinuclidinyl benzylate (RQNB) according to the procedure of M. Watson, et al, J. Pharmacol. Exp. Ther. 1986; 237:411.

Assay [2] deals with muscarinic antagonist sites. The experiment in a line: Binding to muscarinic antagonist sites using [^3 H]-quinuclidinyl benzylate (RQNB). The following applies: in vitro. The protocol: as §1
The target in assay [3] is dopamine receptors. The experiment in a line: Affinity for dopamine receptors with the dopamine antagonist [^3 H]spiperone (RBSP). The format is binding. Particulars: in vitro. The protocol:
as §1

SMILES strings stand for the structures.

As for `CCCN1CC=CC(CCC(=NO)c2ccccc2)C1.O=C(O)C(=O)O` (stereo not drawn) [1(e)(a), 1-Phenyl-3-(1,2,3,6-tetrahydro-1-propyl-3-pyridinyl)-1-propanone oxime oxalate], the values for the IC50 in assay [1] and in assay [3] were 2.07 nM and over 1000 nM, respectively. Moreover, in assay [2], the “RQNB % Inhib at 10^-6 M” value amounted to 27%.

In the case of `CCCN1CCC=C(CCC(=NO)c2ccccc2)C1.O=C(O)C(=O)O` [1(e)(b), 1-Phenyl-3-(1,2,5,6-tetrahydro-1-propyl-3-pyridinyl)-1-propanone oxime oxalate], the figures for the IC50 in assay [1] and in assay [3] were 1.99 nM and over 1000 nM, respectively. For the same compound, the “RQNB % Inhib at 10^-6 M” value in assay [2] amounted to 10%.

Take `CCCN1CC=CC(CCC(=NO)c2ccc(OC)cc2)C1.O=C(O)C(=O)O` (stereo not drawn) [2(e)(a), 1-(4-Methoxyphenyl)-3-(1,2,3,6-tetrahydro-1-propyl-3-pyridinyl)-1-propanoneoxime oxalate]: the IC50 in assay [1] is 6.49 nM; in assay [3] it was over 1000 nM. For the same compound, the “RQNB % Inhib at 10^-6 M” value in assay [2] amounted to 6%.

`CCCN1CCC=C(CCC(=NO)c2ccc(OC)cc2)C1.O=C(O)C(=O)O` [2(e)(b), 1-(4-Methoxyphenyl)-3-(1,2,5,6-tetrahydro-1-propyl-3-pyridinyl)-1-propanone oxime oxalate]: the IC50 in assay [1] is 2.39 nM; in assay [3], over 1000 nM. For the same compound, in assay [2], the “RQNB % Inhib at 10^-6 M” value stood at 9%.
